± gives the expanded uncertainty stated by the source.

The series can be described thus: activity coefficient (dimensionless); of the first substance listed, at infinite dilution; xn = mol fraction of the nth substance listed. As to conditions: 101.33 kPa, Liquid, Chromatography, x1 = 0.

As for `ClCCCl` [1,2-dichloroethane] + CCCCCCCCCC[N+](C)(C)CCCCCCCCCC.F[B-](F)(F)F, the activity coefficient is, setting by setting: (323 K) 0.616 ± 0.065; (338 K) 0.622 ± 0.066; (353 K) 0.682 ± 0.071.
For `ClCCCl` [1,2-dichloroethane] + CCCCCCCCCC[N+](C)(C)CCCCCCCCCC.[O-][Cl+3]([O-])([O-])[O-] the same measures were 0.464 ± 0.052, 0.494 ± 0.055 and 0.482 ± 0.053.
In the case of `C=CCCCCC` [1-heptene] + CCCCCCCCCC[N+](C)(C)CCCCCCCCCC.F[B-](F)(F)F, the activity coefficient runs as follows: (308 K) 1.79 ± 0.19; (323 K) 1.81 ± 0.19; (338 K) 1.83 ± 0.19; (353 K) 2.23 ± 0.23.
For `C=CCCCCC` [1-heptene] + CCCCCCCCCC[N+](C)(C)CCCCCCCCCC.[O-][Cl+3]([O-])([O-])[O-] the same measures were 2.69 ± 0.28, 1.85 ± 0.19, 2.23 ± 0.23 and 2.15 ± 0.23.
For `C#CCCCCC` [1-heptyne] + CCCCCCCCCC[N+](C)(C)CCCCCCCCCC.F[B-](F)(F)F the same measures were 0.892 ± 0.091, 0.893 ± 0.091, 0.894 ± 0.091 and 1.12 ± 0.12.
Take `C#CCCCCC` [1-heptyne] + CCCCCCCCCC[N+](C)(C)CCCCCCCCCC.[O-][Cl+3]([O-])([O-])[O-]: the activity coefficient (308 K) turned out to be 1.14 ± 0.12, the activity coefficient (323 K) is 1.1 ± 0.11, the activity coefficient (338 K) turned out to be 1.17 ± 0.12 and the activity coefficient (353 K) was 1.18 ± 0.12.
Regarding `C#CCCCC` [1-hexyne] + CCCCCCCCCC[N+](C)(C)CCCCCCCCCC.F[B-](F)(F)F, the activity coefficient came out at 0.85 ± 0.087 (308 K), 0.838 ± 0.086 (323 K), 0.826 ± 0.085 (338 K) and 0.937 ± 0.096 (353 K).
On to `C#CCCCC` [1-hexyne] + CCCCCCCCCC[N+](C)(C)CCCCCCCCCC.[O-][Cl+3]([O-])([O-])[O-], for which the activity coefficient was found to be 0.732 ± 0.076 (308 K), 0.83 ± 0.085 (323 K), 0.989 ± 0.1 (338 K) and 0.969 ± 0.099 (353 K).
`C=CCCC` [1-pentene] + CCCCCCCCCC[N+](C)(C)CCCCCCCCCC.F[B-](F)(F)F: the activity coefficient reads like this: (308 K) 1.27 ± 0.13; (323 K) 1.2 ± 0.12; (338 K) 1.13 ± 0.12; (353 K) 1.26 ± 0.13.
For `C=CCCC` [1-pentene] + CCCCCCCCCC[N+](C)(C)CCCCCCCCCC.[O-][Cl+3]([O-])([O-])[O-] the same measures were 1.88 ± 0.2, 1.56 ± 0.16, 1.37 ± 0.14 and 1.31 ± 0.13.
As to `C/C=C(\C)CC` [(E)-3-methyl-2-pentene] + CCCCCCCCCC[N+](C)(C)CCCCCCCCCC.F[B-](F)(F)F, the activity coefficient runs as follows: (323 K) 1.71 ± 0.18; (338 K) 1.3 ± 0.13; (353 K) 1.43 ± 0.15.
As to `C/C=C(\C)CC` [(E)-3-methyl-2-pentene] + CCCCCCCCCC[N+](C)(C)CCCCCCCCCC.[O-][Cl+3]([O-])([O-])[O-], the activity coefficient is 1.48 ± 0.15 (323 K), 1.49 ± 0.15 (338 K) and 1.32 ± 0.14 (353 K).
For `C/C=C/C(C)C` [(E)-4-methyl-2-pentene] + CCCCCCCCCC[N+](C)(C)CCCCCCCCCC.F[B-](F)(F)F the same measures were 1.68 ± 0.17, 1.45 ± 0.15 and 1.57 ± 0.16.
For `C/C=C/C(C)C` [(E)-4-methyl-2-pentene] + CCCCCCCCCC[N+](C)(C)CCCCCCCCCC.[O-][Cl+3]([O-])([O-])[O-] the same measures were 1.68 ± 0.17, 1.72 ± 0.18 and 1.46 ± 0.15.
For `CC(C)=O` [acetone] + CCCCCCCCCC[N+](C)(C)CCCCCCCCCC.F[B-](F)(F)F the same measures were 0.991 ± 0.1, 0.833 ± 0.086 and 0.86 ± 0.088.
Consider `CC(C)=O` [acetone] + CCCCCCCCCC[N+](C)(C)CCCCCCCCCC.[O-][Cl+3]([O-])([O-])[O-], for which the activity coefficient was 0.489 ± 0.054 (323 K), 0.537 ± 0.058 (338 K) and 0.527 ± 0.057 (353 K).
For `CC#N` [acetonitrile] + CCCCCCCCCC[N+](C)(C)CCCCCCCCCC.F[B-](F)(F)F the same measures were 1.21 ± 0.12, 1.06 ± 0.11 and 1.24 ± 0.13.
In the case of `CC#N` [acetonitrile] + CCCCCCCCCC[N+](C)(C)CCCCCCCCCC.[O-][Cl+3]([O-])([O-])[O-], the activity coefficient (323 K) was found to be 0.543 ± 0.059, the activity coefficient (338 K) stood at 0.511 ± 0.056 and the activity coefficient (353 K) turned out to be 0.46 ± 0.052.
For `c1ccccc1` [benzene] + CCCCCCCCCC[N+](C)(C)CCCCCCCCCC.F[B-](F)(F)F the same measures were 0.499 ± 0.055, 0.519 ± 0.057 and 0.667 ± 0.07.
For `c1ccccc1` [benzene] + CCCCCCCCCC[N+](C)(C)CCCCCCCCCC.[O-][Cl+3]([O-])([O-])[O-] the same measures were 0.499 ± 0.055, 0.59 ± 0.063 and 0.527 ± 0.057.
As for `CCCC` [butane] + CCCCCCCCCC[N+](C)(C)CCCCCCCCCC.F[B-](F)(F)F, the activity coefficient is, setting by setting: (308 K) 1.21 ± 0.12; (323 K) 1.12 ± 0.12; (338 K) 1.04 ± 0.1; (353 K) 0.939 ± 0.096.
For `CCCC` [butane] + CCCCCCCCCC[N+](C)(C)CCCCCCCCCC.[O-][Cl+3]([O-])([O-])[O-] the same measures were 1.36 ± 0.14, 1.32 ± 0.14, 1.28 ± 0.13 and 1.24 ± 0.13.
On to `CCC(C)=O` [butanone] + CCCCCCCCCC[N+](C)(C)CCCCCCCCCC.F[B-](F)(F)F, for which the activity coefficient was found to be 1.07 ± 0.11 (323 K), 0.903 ± 0.092 (338 K) and 0.82 ± 0.084 (353 K).
For `CCC(C)=O` [butanone] + CCCCCCCCCC[N+](C)(C)CCCCCCCCCC.[O-][Cl+3]([O-])([O-])[O-] the same measures were 0.532 ± 0.058, 0.59 ± 0.063 and 0.585 ± 0.063.
In the case of `C1CCCCCC1` [cycloheptane] + CCCCCCCCCC[N+](C)(C)CCCCCCCCCC.F[B-](F)(F)F, the activity coefficient amounted to 1.65 ± 0.17 (308 K), 1.61 ± 0.17 (323 K), 1.57 ± 0.16 (338 K) and 1.98 ± 0.21 (353 K).
For `C1CCCCCC1` [cycloheptane] + CCCCCCCCCC[N+](C)(C)CCCCCCCCCC.[O-][Cl+3]([O-])([O-])[O-] the same measures were 2.29 ± 0.24, 2.04 ± 0.21, 1.91 ± 0.2 and 1.78 ± 0.19.
For `C1CCCCC1` [cyclohexane] + CCCCCCCCCC[N+](C)(C)CCCCCCCCCC.F[B-](F)(F)F the same measures were 1.47 ± 0.15, 1.43 ± 0.15, 1.4 ± 0.14 and 1.73 ± 0.18.
For `C1CCCCC1` [cyclohexane] + CCCCCCCCCC[N+](C)(C)CCCCCCCCCC.[O-][Cl+3]([O-])([O-])[O-] the same measures were 2.05 ± 0.21, 1.78 ± 0.19, 1.66 ± 0.17 and 1.54 ± 0.16.
Regarding `O=C1CCCCC1` [cyclohexanone] + CCCCCCCCCC[N+](C)(C)CCCCCCCCCC.F[B-](F)(F)F, the activity coefficient (323 K) was 9.47 ± 1, the activity coefficient (338 K) is 7.99 ± 0.84 and the activity coefficient (353 K) is 9.05 ± 0.95.
For `O=C1CCCCC1` [cyclohexanone] + CCCCCCCCCC[N+](C)(C)CCCCCCCCCC.[O-][Cl+3]([O-])([O-])[O-] the same measures were 11.7 ± 1.2, 9.68 ± 1 and 8.46 ± 0.89.
Turning to `C1CCCC1` [cyclopentane] + CCCCCCCCCC[N+](C)(C)CCCCCCCCCC.F[B-](F)(F)F, the activity coefficient came to 1.21 ± 0.12 (308 K), 1.17 ± 0.12 (323 K), 1.13 ± 0.12 (338 K) and 1.28 ± 0.13 (353 K).
For `C1CCCC1` [cyclopentane] + CCCCCCCCCC[N+](C)(C)CCCCCCCCCC.[O-][Cl+3]([O-])([O-])[O-] the same measures were 1.48 ± 0.15, 1.16 ± 0.12, 1.26 ± 0.13 and 1.19 ± 0.12.
Take `CCOCC` [diethyl ether] + CCCCCCCCCC[N+](C)(C)CCCCCCCCCC.F[B-](F)(F)F: the activity coefficient is, setting by setting: (323 K) 1.08 ± 0.11; (338 K) 0.769 ± 0.08; (353 K) 0.79 ± 0.081.
For `CCOCC` [diethyl ether] + CCCCCCCCCC[N+](C)(C)CCCCCCCCCC.[O-][Cl+3]([O-])([O-])[O-] the same measures were 1.03 ± 0.1, 0.848 ± 0.087 and 0.74 ± 0.077.
For the compound `CCO` [ethanol] + CCCCCCCCCC[N+](C)(C)CCCCCCCCCC.F[B-](F)(F)F, the activity coefficient by setting is: (308 K) 0.539 ± 0.058; (323 K) 0.469 ± 0.052; (338 K) 0.408 ± 0.047; (353 K) 0.422 ± 0.048.
For `CCO` [ethanol] + CCCCCCCCCC[N+](C)(C)CCCCCCCCCC.[O-][Cl+3]([O-])([O-])[O-] the same measures were 0.623 ± 0.066, 0.497 ± 0.055, 0.582 ± 0.062 and 0.531 ± 0.058.
For `CCCCCCC` [heptane] + CCCCCCCCCC[N+](C)(C)CCCCCCCCCC.F[B-](F)(F)F the same measures were 3.53 ± 0.37, 3.04 ± 0.32, 2.62 ± 0.28 and 2.48 ± 0.26.

The values above are taken from the NIST ThermoML archive (doi:10.1016/j.fluid.2018.11.011).
